Assay results reported in patent US20250049970A1, “DLL3 TARGETING PEPTIDES AND CONSTRUCTS THEREOF” (MARIANA ONCOLOGY INC., priority 2023, published 2025).
Like-named read-outs stand apart in the source and are kept apart here. *1 amine or outer side, *2 acyl side, *3 side chain or, on linkers, in order; H or OH if unused. Where a SMILES comes first, the peptide text is derived from it. Bridges are numbered along the chain shown (N, C = ends). [ ]: non-standard residue; d: D form. The star is where a group is joined. ξ: configuration not given here. Ala(piperidin-4-yl) = O=C([C@H](CC1CCN([*:3])CC1)N[*:1])[*:2]; DOTA = O=C(O)CN1CCN(CC(=O)O)CCN(CC(=O)*)CCN(CC(=O)O)CC1; X2 = O=C(Cc1ccc(I)cc1)NCCOCCOCCOCCOCCOCCOCCOCCOCC(=O)*; 2Nal = N[C@@H](Cc1ccc2ccccc2c1)C(=O)O; NMetBuAla = CN[C@@H](CC(C)(C)C)C(=O)O; Thr(3ξ) = CC(O)[C@H](N)C(=O)O; Chg = N[C@H](C(=O)O)C1CCCCC1; NMeNle = CCCC[C@H](NC)C(=O)O; Tle = CC(C)(C)[C@H](N)C(=O)O; αMeP = C[C@@]1(C(=O)O)CCCN1; CH2 = C([*:1])[*:2]

What was measured:
SHP-77 cells [1] = assay: Cell binding (total uptake) of [177Lu]Lu-labeled peptide, SHP-77 cells; type: cell-based; conditions: 1 h, 37° C.
Protocol: (§1) [^177Lu]LuCl3 was received from venders in HCl solution. For every mCi of [^177Lu]LuCl3 added to the reaction vial (1.5 mL Eppendorf vial), ammonium acetate buffer (0.2 M, pH 4.9, 100 μL, containing 1% w/v ascorbic acid and 6% v/v ethanol) and peptide conjugate (1 nmol; also referred to herein as “chelator-peptides”) was added. The pH of the solution was determined to be approximately 5 by using pH strips. The reaction vial was incubated at 80° C., 700 RPM for 17-20 minutes. A sample from the reaction was analyzed by RP-HPLC using an Agilent Infinity II 1260 HPLC to determine reaction completion and radiochemical purity of [^177Lu]Lu-chelator-peptides. HPLC conditions: Waters XBridge BEH C18 Column, 130A, 3.5 μm, 4.6 mm×250 mm; mobile phase: Solvent A=water (with 0.1% formic acid), solvent B=acetonitrile (with 0.1% formic acid). Gradients: 25-45% B in 10 minutes, 45-65% B in 12 minutes, 65-90% in 6 minutes at a flow rate of 0.5 mL/minutes Required amounts of the product was formulated in 1% PBSA for cell studies.
(§2) The study was conducted using SHP-77, CT26.WT, CT26.DLL3, and HEK293.DLL3 cells (Table 9)
(§3) Adherent cell studies: The cells were cultured in appropriate culture media (20 mL) in tissue culture treated T150 flasks at 37° C. and 5% C02. Adherent cells were detached (60-70% confluent) using 5 mL Versene at 37° C. for 3 minutes. After confirming the viability using countess and count of detached cells using Trypan blue, the cells were centrifuged at 4° C. for 5 minutes (1,000 rpm). The cell pellet obtained was washed once with PBS and resuspended in 1% PBSA to obtain the desired cell concentration (5-25 million cells/mL).
as §3, with “Suspension” for “Adherent”, “CO2.” for “C02. Adherent cells were detached (60-70% confluent) using 5 mL Versene at 37° C. for 3 minutes.”, “viability” for “viability using countess”
(§4) Cell numbers used for the assay were in the range of 5 million cells/condition-25 million cells/condition.
(§5) Total uptake: Cells were incubated with 300 μL (0.8 μCi) of the incubation buffer (containing radiolabeled peptide [^177Lu]Lu-test peptide) for 1 hour at 37° C. (Table 10). Post incubation, the cells were pelleted and washed 2 times using cold PBS+1% BSA. The supernatant and washes were combined and counted together as “unbound fraction” in a gamma counter. The cells were then resuspended in 300 μL of 1% PBS+1% BSA and counted in the gamma counter as “bound fraction”.
(§6) In these Tables, “A” represents % s ≤25; “B” represents 25 <% ≤50; “C” represents % >50.

SHP-77 cells [2] = assay: Internalization of [177Lu]Lu-labeled peptide, SHP-77 cells; type: cell-based; conditions: 1 h, 37° C.
Protocol: as §1, §2, §3
as §3, with “Suspension” for “Adherent”, “CO2.” for “C02. Adherent cells were detached (60-70% confluent) using 5 mL Versene at 37° C. for 3 minutes.”, “viability” for “viability using countess”
as §4
(§7) Internalization: The resuspended cells in 300 μL of 1% PBSA and counted in the gamma counter as “bound fraction” were collected in 1.5 mL Eppendorf tube and pelleted. The pelleted cells were incubated with 300 μL of 50 mM Glycine pH=2.5 for 3 minutes and then pelleted discarding the supernatant. This process was repeated one more time. The pelleted cells were washed with 300 μL of cold 1% PBSA and then resuspended in 300 μl 0.3M NaOH. This was counted in the gamma counter as “internalized fraction”.
as §6

[3] = system: nude mice bearing SHP-77 tumors; assay: Ex vivo biodistribution of radiolabeled peptides (% IA/g) in nude mice bearing SHP-77 tumors; conditions: [177Lu]Lu labelling, 24 hours post-injection, intravenous
Protocol: Mice were intravenously injected (via the lateral tail vein) with a bolus dose of the radiolabeled peptides for ex vivo biodistribution studies when tumor volumes were in range of 200-400 mm^3 for xenograft mice and when age of the mice was 5-7 weeks for tumor naïve mice studies. To assess the amount of radionuclide injected into individual mice the syringe was assayed in a dose calibrator before and after injection for [^177Lu]Lu-peptide, then the injected dose was determined from the weight difference and concentration of the radionuclide solution.
Mice were euthanized at pre-determined time points and selected tissues were resected and collected into pre-weighed tubes. The tubes were then reweighed post resection, the difference giving the weight of each tissue. Radioactivity in each tissue was measured using a gamma counter. Counts were decay corrected to the time of injection and percentage of injected activity per gram (% IA/g) was calculated for each tissue based on the injected activity into each individual mouse. Injected activity was converted to counts based on the sensitivity of the gamma counter. The counts in tissue were then converted to the percentage of injected activity and this was divided by the mass of tissue to give % IA/g.

DLL3 = target: T1, DLL3 (Homo sapiens, UniProt Q9NYJ7); assay: SPR KD, biotinylated human DLL3 on streptavidin chip (Table 8); parameters: biotin (biotinylated)
T1 sequence (Q9NYJ7 27-618): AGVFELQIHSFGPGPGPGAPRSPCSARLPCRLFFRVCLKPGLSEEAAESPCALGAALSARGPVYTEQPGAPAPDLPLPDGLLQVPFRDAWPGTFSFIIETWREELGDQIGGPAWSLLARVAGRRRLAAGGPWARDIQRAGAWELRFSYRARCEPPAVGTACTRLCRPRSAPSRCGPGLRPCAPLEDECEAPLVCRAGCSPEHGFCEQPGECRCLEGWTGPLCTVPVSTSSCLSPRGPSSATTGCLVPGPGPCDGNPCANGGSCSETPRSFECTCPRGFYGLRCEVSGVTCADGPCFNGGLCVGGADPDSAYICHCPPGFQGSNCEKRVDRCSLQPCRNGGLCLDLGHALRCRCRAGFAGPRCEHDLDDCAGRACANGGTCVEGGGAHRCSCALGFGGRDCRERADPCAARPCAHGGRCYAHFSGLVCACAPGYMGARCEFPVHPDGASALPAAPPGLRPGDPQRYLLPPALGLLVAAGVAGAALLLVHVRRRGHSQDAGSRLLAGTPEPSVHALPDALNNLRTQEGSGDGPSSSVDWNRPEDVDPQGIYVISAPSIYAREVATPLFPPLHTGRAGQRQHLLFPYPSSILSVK
Text: Biotinylated target ligand human DLL3 was immobilized on a streptavidin sensor chip. A reference surface was set up for nonspecific binding and refractive index changes. […] Sensorgram curves were fitted with 1:1 binding model, and affinity and kinetic parameters were obtained using Biacore Insight evaluation 4.0. software.

CT26.DLL3 cells [4] = assay: Cell binding (total uptake) of [177Lu]Lu-labeled peptide, CT26.DLL3 cells; type: cell-based; conditions: 1 h, 37° C.
Protocol: as §1, §2, §3, §4, §5, §6

CT26.DLL3 cells [5] = assay: Internalization of [177Lu]Lu-labeled peptide, CT26.DLL3 cells; type: cell-based; conditions: 1 h, 37° C.
Protocol: as §1, §2, §3, §4, §7, §6

[6] = biotinylated human DLL3 on streptavidin sensor chip, 25° C., 1:1 binding model; read-out: SPR KD

Row | Structure (SMILES) | kidney uptake (% IA/g) [3] | Kd (DLL3; [6]) | % Binding (SHP-77 cells [1]) | % Internalization (out of bound fraction) (SHP-77 cells [2]) | tumor uptake (% IA/g) [3] | % Binding (CT26.DLL3 cells [4]) | % Internalization (out of bound fraction) (CT26.DLL3 cells [5]) | Kd (DLL3; read-out: SPR KD; biotinylated human DLL3 on streptavidin sensor chip, 25° C., 1:1 binding model)
1 | CC(=O)N[C@@H](Cc1c[nH]c2ccccc12)C(=O)N[C@H](C(=O)N[C@H](C(=O)N[C@H]1CSCSC[C@@H](C(=O)N[C@@H](Cc2c[nH]c3ccccc23)C(=O)N2CCC[C@H]2C(=O)N[C@H](CCCCNC(=O)COCCOCCOCCOCCOCCOCCOCCOCCNC(=O)Cc2ccc(I)cc2)C(N)=O)NC(=O)[C@H](CC(=O)O)NC(=O)[C@H](CCCCNC(=O)CN2CCN(CC(=O)O)CCN(CC(=O)O)CCN(CC(=O)O)CC2)NC(=O)[C@H](Cc2ccc3ccccc3c2)NC(=O)[C@H](CC(N)=O)NC(=O)[C@H](CC2CCNCC2)NC1=O)C1CCCCC1)[C@@H](C)O [compound 417] (Ac-WT[Chg]C[Ala(piperidin-4-yl)]N[2Nal]K(DOTA)DCWP[dK](X2)-NH2; linker 4-10 via CH2) | D (“D” represents % IA/g > 10 in kidney) | – | – | – | B (“B” represents % IA/g > 5 in tumor) | B (25 <% ≤50) | B (25 <% ≤50) | < 1 nM
2 | CC(=O)N[C@@H](Cc1c[nH]c2ccccc12)C(=O)N[C@H](C(=O)N(C)[C@@H](CC(C)(C)C)C(=O)N[C@H]1CSCSC[C@@H](C(=O)N[C@@H](Cc2c[nH]c3ccccc23)C(=O)N2CCC[C@@]2(C)C(N)=O)NC(=O)[C@H](CC(=O)O)NC(=O)[C@H](CCCCNC(=O)CN2CCN(CC(=O)O)CCN(CC(=O)O)CCN(CC(=O)O)CC2)NC(=O)[C@H](Cc2ccc3ccccc3c2)NC(=O)[C@H](CC(N)=O)NC(=O)[C@H](CC2CCNCC2)NC1=O)[C@@H](C)O [compound 236, Ac-W-T-(NMe-tBuAla)-C(1)-[3-(4-piperidinyl)-Ala]-N-(2Nal)-Lys(DOTA)-D-C(1)-W-(aMe-P)-CONH2] (Ac-WT[NMetBuAla]C[Ala(piperidin-4-yl)]N[2Nal]K(DOTA)DCW[αMeP]-NH2; linker 4-10 via CH2) | C (“C” represents 0 < % IA/g ≤ 10 in) | < 1 nM | C (% >50) | C (% >50) | B (“B” represents % IA/g > 5 in tumor) | – | – | –
3 | CCCC[C@@H](C(=O)N[C@H]1CSSC[C@@H](C(=O)N[C@@H](Cc2c[nH]c3ccccc23)C(=O)N2CCC[C@H]2C(N)=O)NC(=O)[C@H](CC(=O)O)NC(=O)[C@H](CCCCNC(=O)CN2CCN(CC(=O)O)CCN(CC(=O)O)CCN(CC(=O)O)CC2)NC(=O)[C@H](Cc2ccc3ccccc3c2)NC(=O)[C@H](CC(N)=O)NC(=O)[C@H](CC2CCNCC2)NC1=O)N(C)C(=O)[C@@H](NC(=O)[C@H](Cc1c[nH]c2ccccc12)NC(C)=O)[C@@H](C)O [compound 300, Ac-W-T-(NMe-Nle)-C(3)-[3-(4-piperidinyl)-Ala]-N-(2Nal)-Lys(DOTA)-D-C(3)-W-P-CONH2] (Ac-WT[NMeNle]C[Ala(piperidin-4-yl)]N[2Nal]K(DOTA)DCWP-NH2; disulfide 4-10) | C (“C” represents 0 < % IA/g ≤ 10 in) | < 1 nM | – | – | A (“A” represents 0 < % IA/g ≤ 5 in tumor) | B (25 <% ≤50) | B (25 <% ≤50) | –

The next lines start with results.

Row | kidney uptake (% IA/g) [3] | Kd (DLL3; [6]) | Structure (SMILES) | % Binding (SHP-77 cells [1]) | % Internalization (out of bound fraction) (SHP-77 cells [2]) | tumor uptake (% IA/g) [3] | % Binding (CT26.DLL3 cells [4]) | % Internalization (out of bound fraction) (CT26.DLL3 cells [5]) | Kd (DLL3; read-out: SPR KD; biotinylated human DLL3 on streptavidin sensor chip, 25° C., 1:1 binding model)
4 | C (“C” represents 0 < % IA/g ≤ 10 in) | < 1 nM | CC(=O)NCCCC[C@@H](NC(=O)[C@@H]1CCCN1C(=O)[C@H](Cc1c[nH]c2ccccc12)NC(=O)[C@@H]1CSCSC[C@H](NC(=O)[C@H](CC(C)(C)C)N(C)C(=O)[C@@H](NC(=O)[C@H](Cc2c[nH]c3ccccc23)NC(C)=O)C(C)O)C(=O)N[C@@H](CC2CCNCC2)C(=O)N[C@@H](CC(N)=O)C(=O)N[C@@H](Cc2ccc3ccccc3c2)C(=O)N[C@@H](CCCCNC(=O)CN2CCN(CC(=O)O)CCN(CC(=O)O)CCN(CC(=O)O)CC2)C(=O)N[C@@H](CC(=O)O)C(=O)N1)C(N)=O (stereo partly drawn) [compound 445, Ac-W-T-(NMe-tBuAla)-C(1)-[3-(4-piperidinyl)-Ala]-N-(2Nal)-Lys(DOTA)-D-C(1)-W-P-[D-Lys(Ac)]-CONH2] (Ac-W[Thr(3ξ)][NMetBuAla]C[Ala(piperidin-4-yl)]N[2Nal]K(DOTA)DCWP[dK](Ac)-NH2; linker 4-10 via CH2) | C (% >50) | C (% >50) | B (“B” represents % IA/g > 5 in tumor) | – | – | –
5 | C (“C” represents 0 < % IA/g ≤ 10 in) | < 1 nM | CC(=O)N[C@@H](Cc1c[nH]c2ccccc12)C(=O)N[C@H](C(=O)N[C@H](C(=O)N[C@H]1CSSC[C@@H](C(=O)N[C@@H](Cc2c[nH]c3ccccc23)C(=O)N2CCC[C@H]2C(N)=O)NC(=O)[C@H](CC(=O)O)NC(=O)[C@H](CCCCNC(=O)CN2CCN(CC(=O)O)CCN(CC(=O)O)CCN(CC(=O)O)CC2)NC(=O)[C@H](Cc2ccc3ccccc3c2)NC(=O)[C@H](CC(N)=O)NC(=O)[C@H](CC2CCNCC2)NC1=O)C(C)(C)C)[C@@H](C)O [compound 301, Ac-W-T-(Tbg)-C(3)-[3-(4-piperidinyl)-Ala]-N-(2Nal)-Lys(DOTA)-D-C(3)-W-P-CONH2] (Ac-WT[Tle]C[Ala(piperidin-4-yl)]N[2Nal]K(DOTA)DCWP-NH2; disulfide 4-10) | – | – | A (“A” represents 0 < % IA/g ≤ 5 in tumor) | B (25 <% ≤50) | B (25 <% ≤50) | –
